Assay results taken from patent US20110003321A1, “Monitoring of Intercellular Mitochondorial Polarization” (Kyushu University National University Corporation, priority 2005, published 2011).

Columns and labels:
Type in all cases: cell-based
[1] = system: Human pancreas cancer cells MIA PaCa-2; experiment: Survival rate by counting the number of cells (trypan blue, standard method), combined use of agents; details: 25 μM each agent; 48 hours after medium replacement; FIG. 12
Method: The effect of combined use of plural agents was evaluated by a method including co-culturing a test agent with the cells, and counting the number of reduced cells by apoptosis. Human pancreas cancer cells MIA PaCa-2 were used as the test cells. A cell suspension of 5×10^4 cells/mL was prepared with the use of EMEM (Eagles' minimum essential medium) containing 10% (v/v) FBS, 50 units/mL penicillin, 50 μg/mL streptomycin, and 100 μM nonessential amino acid, and 5 mL of the cell suspension was poured into each 6-cm petri dish and pre-cultured at 37° C. with the CO2 concentration of 5%. After 24 hours, either a replacement with new 5 mL EMEM (DMSO used as the solvent of the phenol component was contained at the final concentration of 0.1% (v/v)) containing 25 μM quercetin, 25 μM trans-resveratrol, or both 25 μM quercetin and 25 μM trans-resveratrol in addition to the medium, or a replacement with 5 mL EMEM containing only 0.1% (v/v) DMSO as a control was carried out, and then culturing was carried out. Forty eight hours after the medium was replaced, trypan blue staining was carried out, and then the number of cells was counted with a hemocytometer. Comparison was carried out for the respective conditions, with 100 representing the number of cells in the control.

[2] = system: Human pancreas cancer cells MIA PaCa-2; experiment: Measurement of SPR angle, agents alone or in combination; details: 25 μM each agent; 50 minutes after the administration; FIG. 13
Method: SPR angles were measured with the above-described SPR sensor (tilting sensor) at the temperature of 37.0° C. Likewise in the measurement of the survival rate, a cell suspension of 2×10^6 cell/mL was prepared, and 100 μL of the cell suspension was dropped onto a gold plate for SPR measurement and cultured for 20 hours at 37° C. with the CO2 concentration of 5%. After 20 hours, the plate was placed on the prism of the SPR sensor, and on the plate was filled 5 mL EMEM. Then, measurement was started. Ten minutes after the measurement was started, either a replacement with new 5 mL EMEM (DMSO used as the solvent of the phenol component was contained at a final concentration of 0.1% (v/v)) containing 25 μM quercetin, 25 μM trans-resveratrol, or both 25 μM quercetin and 25 μM trans-resveratrol, or a replacement with 5 mL EMEM containing only 0.1% (v/v) DMSO as a control was carried out, and then the measurement of the changes in SPR angle was continued for another 50 minutes.

[3] = system: Human liver cancer cells HepG-2; experiment: Monitoring mitochondrial polarized state using fluorescent reagent JC-1 (HepG-2); details: fenofibrate medium; especially about 20 minutes after the reagent was added; FIG. 3
Method: The fluorescent microscopic observation was carried out with the use of Axioplan 2 (Carl Zeiss) as a microscope, a 75-W xenon lamp as a light source, and NTE/CCD Detector MicroMAX-512BFT (Princeton Instruments) as a detector. Images were obtained and analyzed with the use of fluorescence analysis software, MetaFluor Imaging System Ver. 4.65 (Universal Imaging).
(§1) Human liver cancer cells HepG-2 were used as test cells. A liquid medium EMEM containing 100 μM nonessential amino acid, 50 units/mL penicillin, 50 μg/mL streptomycin, and 10% (v/v) FBS was prepared, at 37° C. with a CO2 concentration of 5%, to be used as a complete medium, and the cells were pre-cultured in the complete medium and then used in the testing. Fenofibrate (2-[4-(4-Chlorobenzoyl)phenoxy]-2-methylpropanoic acid isopropyl ester) was used as a lipid metabolism promoting agent. Lipid metabolism activity was evaluated at the time when 25 μM fenofibrate was added and at the time when 50 μM fenofibrate was added. […]
Following pre-culture, the test cells were removed from the petri dish, and the concentration of the test cells in the complete medium was adjusted to 2×10^6 cell/mL. […] To detect fluorescence, a set of filters that transmitted 515-565 nm and a set of filters that transmitted 575-640 nm were used. […]

[4] = system: Human liver cancer cells HepG-2; experiment: Evaluation of lipid metabolism activity using SPR; details: 25 μM and 50 μM fenofibrate; especially about 20 minutes after the reagent was added; FIG. 2
Method: Measurement of SPR signals and fluorescent microscopic observation were carried out using a device having a fluorescent microscope located above living cells, which cells are a target of the measurement, and an SPR sensor located under the living cells. […] An optical system of Kretschmann configuration was used as an SPR sensor. BK7 (with a refractive index of 1.51) was used as a prism. A semiconductor laser (with a wavelength of 670 nm, an output of 3 mW, and a beam diameter of 1 mm) was used as a light source. A silicon photodiode detector was used as a detector. The measurement was carried out in the atmosphere (with 20% O2 and 0.035% CO2), unless otherwise stated.
as §1

SMILES	survival rate (number of cells, control = 100) [1] [%]	change in SPR angle [2]	fluorescence intensity (JC-1) resulting from mitochondrial polarization due to activation of lipid metabolism [3]	changes in SPR signals resulting from mitochondrial polarization due to activation of lipid metabolism [4]
O=c1c(O)c(-c2ccc(O)c(O)c2)oc2cc(O)cc(O)c12 [quercetin, Quercetin]	76.1	approximately 0.05 degrees		
Oc1ccc(/C=C/c2cc(O)cc(O)c2)cc1 [trans-resveratrol]	56.2	approximately 0.05 degrees		
CC(C)OC(=O)C(C)(C)Oc1ccc(C(=O)c2ccc(Cl)cc2)cc1 [fenofibrate, 2-[4-(4-Chlorobenzoyl)phenoxy]-2-methylpropanoic acid isopropyl ester]			increase in fluorescence intensity	changes (−) were observed in the SPR signals
